Assay [1] has as its system NIH3T3. Nature of the assay: Apo-BrdU labeling and flow cytometry for apoptotic cells. Format: cell-based, mouse. To be noted: NIH3T3, 1 mM, 48 h, flow cytometry. The method, then:
(§1) Cell proliferation, soft-agar growth and Apo-BrdU labeling studies. Proliferating fibroblasts and human tumor cells were counted by phase-contrast microscopy for viable cells (using tyrpan blue exclusion). Colony formation assays in six-well dishes and quantification of colonies by iodonitrotetrazolium violet have been previously described (Turkson, J. et al. (1999)). Treatment of cells with inhibitors was initiated 1 day after seeding cells by adding 75 μl of medium with or without inhibitor, and repeated every two to three days. Apoptosis was measured by Apo-BrdU labeling and following the supplier's (PharMingen; San Diego, Calif.) instructions.
(§2) Because one of the functions of Stat3 is to protect transformed or tumor cells from apoptosis (Catlett-Falcone, R. et al. (1999b); Epling-Burnette, P. K. et al. (2001); Grandis, J. R. et al. (2000); Bowman, T. et al. (2000b); Bromberg, J. F. et al. (1999)), the ability of peptidomimetics of the invention (and PY*LKTK-MTS for comparison) (SEQ ID NO. 1) to induce apoptosis in Stat3-dependent transformed fibroblasts was evaluated. Viral Src-transformed NIH3T3/v-Src fibroblasts were treated with or without compounds for 48 h. Treated cells were then labeled with Apo-BrdU (PharMingen; San Diego, Calif.) for detection of DNA breaks.
(In general: Incorporation of labelled thymidine or its analogues reports DNA synthesis.)

The subject of assay [2] is NIH3T3/v-Src. The assay is described as above. Format: cell-based, mouse. To be noted: 48 h. The method, then: as §1, §2
In assay [3] the test system is NIH3T3/v-Ras. The assay can be described thus: Soft-agar growth of v-Ras-transformed fibroblasts. It counts as cell-based, mouse. To be noted: 1 mM every 2-3 days. The method, then:
as §1
Previous studies with PY*LKTK-MTS (SEQ ID NO. 1) (Turkson, J. et al., 2001)) confirmed that inhibition of constitutive Stat3 activation blocks Src transformation (Turkson, J. et al. (1998); Turkson, J. et al., (1999); Bromberg, J. R. et al. (1998)).

Assay [4] concerns NIH3T3. It counts as cell-based, mouse. To be noted: 1 mM, normal NIH3T3 cells. The method, then: as §1
(§3) Stat3 has an essential role in cell proliferation, and constitutively-active Stat3 is required for growth of transformed and tumor cells that harbor aberrant Stat3 signaling. Studies were performed to determine the effects of the peptidomimetic-mediated inhibition of Stat3 on cell proliferation using trypan blue exclusion for viable cell counts.

Assay [5] has as its system NIH3T3/v-Ras. It counts as cell-based, mouse. To be noted: 1 mM. The method, then: as §1, §3
The subject of assay [6] is NIH3T3/v-Src. Format: cell-based, mouse. To be noted: 1 mM, four days. The method, then: as §1, §3
Assay [7] has as its target T1, Stat1:Stat1 (Mus musculus, UniProt P42225).
T1 construct: nuclear extracts (prepared from epidermal growth factor (EGF)-stimulated fibroblasts); endogenous in cells; host or cells: NIH3T3 fibroblasts stimulated with EGF
T1 sequence (P42225 1-749): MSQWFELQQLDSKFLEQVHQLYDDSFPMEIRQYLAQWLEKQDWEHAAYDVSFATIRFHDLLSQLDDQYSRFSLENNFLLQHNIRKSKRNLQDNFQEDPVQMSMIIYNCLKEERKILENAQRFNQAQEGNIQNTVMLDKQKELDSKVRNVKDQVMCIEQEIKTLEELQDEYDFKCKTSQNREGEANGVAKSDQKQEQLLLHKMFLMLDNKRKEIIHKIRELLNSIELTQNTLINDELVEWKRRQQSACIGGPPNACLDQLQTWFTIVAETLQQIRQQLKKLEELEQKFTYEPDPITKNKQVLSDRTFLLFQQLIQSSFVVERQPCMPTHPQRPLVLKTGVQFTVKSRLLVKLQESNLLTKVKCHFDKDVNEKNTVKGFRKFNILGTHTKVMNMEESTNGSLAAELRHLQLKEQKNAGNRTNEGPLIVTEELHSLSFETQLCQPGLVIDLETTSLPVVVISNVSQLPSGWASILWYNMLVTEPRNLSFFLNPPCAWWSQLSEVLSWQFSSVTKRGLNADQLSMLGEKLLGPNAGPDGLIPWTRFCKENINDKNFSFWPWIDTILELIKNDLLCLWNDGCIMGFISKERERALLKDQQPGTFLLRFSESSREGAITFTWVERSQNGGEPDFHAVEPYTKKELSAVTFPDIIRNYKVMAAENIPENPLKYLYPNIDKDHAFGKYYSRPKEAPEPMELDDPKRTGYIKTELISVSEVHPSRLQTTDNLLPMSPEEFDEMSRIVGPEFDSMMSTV
The assay can be described thus: EMSA of Stat1:Stat1 DNA-binding in nuclear extracts. Format: biochemical. The method, then:
Nuclear extract preparation and gel shift assays. Nuclear extracts were prepared from cell lines and used for electrophoretic mobility shift assay (EMSA) as previously described (Garcia, R. et al. (1997); Yu, C. L. et al. (1995); Turkson, J. et al. (1998)). In some cases, cells were pre-treated with peptidomimetics for the indicated times (12-48 h) prior to harvesting for nuclear extract preparation. In other studies, nuclear extracts were pre-incubated with peptidomimetics for 30 min at room temperature prior to incubation with radiolabeled probe. The ^32P-radiolabeled oligonucleotide probes used are hSIE (high affinity sis-inducible element, m67 variant, 5′-[…]-3′) (SEQ ID NO. 3) that binds both Stat1 and Stat3 (Garcia, R. et al. (1997); Wagner B. J. et al. (1990)) and MGFe (mammary gland factor element from the bovine β-casein gene promoter, 5′-[…]-3′) (SEQ ID NO. 4) that binds Stat1 and Stat5 (Gouilleux, F. et al. (1995); Seidel, H. M. et al. (1995)).
Peptidomimetics of the invention can be prepared by replacing prolyl or alanyl residue at the peptide bond that is N-terminal to the phosphotyrosine (Y*) of a peptide such as PY*L or AY*L with an organic substituent such as an optionally substituted aryl or heteroaryl group. The activities of STATs were measured in nuclear extracts (prepared from epidermal growth factor (EGF)-stimulated fibroblasts) as DNA-bound protein complexes by electrophoretic mobility shift assay (EMSA). STAT-DNA complexes detected include Stat3:Stat3 homodimers (upper band), Stat1:Stat3 heterodimers (intermediate band) and Stat1:Stat1 homodimers (lower band) (FIG. 1A) when a ^32P-labeled hSIE oligonucleotide probe is used, or Stat5:Stat5 (upper band) and Stat1:Stat1 dimers (lower band) (FIG. 1B) when ^32P-labeled MGFe is used as a probe.
A general note: In EMSA bound probe runs differently from free probe, usually more slowly.

Assay [8] addresses Stat3 (Mus musculus, UniProt P42227). Format: cell-based. The arrangement: nuclear extracts (prepared from epidermal growth factor (EGF)-stimulated fibroblasts); endogenous in cells; host or cells: NIH3T3 fibroblasts stimulated with EGF.

The source of these data is US7842671B1, “Peptidomimetic inhibitors of STAT activity and uses thereof” (University of South Florida, priority 2003, dated 2010).

Sequence of Stat3 (P42227 whole entry): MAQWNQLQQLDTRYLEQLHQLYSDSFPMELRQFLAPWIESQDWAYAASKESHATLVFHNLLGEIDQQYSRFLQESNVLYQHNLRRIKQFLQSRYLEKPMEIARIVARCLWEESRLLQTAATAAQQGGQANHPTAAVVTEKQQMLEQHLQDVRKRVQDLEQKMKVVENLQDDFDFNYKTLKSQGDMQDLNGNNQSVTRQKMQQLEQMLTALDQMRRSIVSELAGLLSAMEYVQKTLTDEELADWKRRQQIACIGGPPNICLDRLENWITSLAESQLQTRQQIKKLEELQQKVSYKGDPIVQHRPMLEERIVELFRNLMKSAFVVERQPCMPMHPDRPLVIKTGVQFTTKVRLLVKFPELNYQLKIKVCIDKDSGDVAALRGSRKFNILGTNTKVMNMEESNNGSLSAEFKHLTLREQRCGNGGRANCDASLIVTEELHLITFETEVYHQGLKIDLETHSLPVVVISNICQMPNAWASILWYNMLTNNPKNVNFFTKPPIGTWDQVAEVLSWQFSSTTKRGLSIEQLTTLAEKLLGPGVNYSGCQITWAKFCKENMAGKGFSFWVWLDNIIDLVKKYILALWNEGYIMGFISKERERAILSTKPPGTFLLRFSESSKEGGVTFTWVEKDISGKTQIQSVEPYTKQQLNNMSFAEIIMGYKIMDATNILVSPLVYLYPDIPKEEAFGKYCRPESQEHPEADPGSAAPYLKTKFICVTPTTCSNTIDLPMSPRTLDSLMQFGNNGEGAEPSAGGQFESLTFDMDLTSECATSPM

The IC50 is the concentration that gives 50% inhibition. For `CC(C)CC(NC(=O)C(Cc1ccc(OP(=O)(O)O)cc1)NC(=O)c1ccc(C#N)cc1)C(=O)O` (stereo not drawn) [ISS 610], the “percent of apoptotic cells” value is given as 0.3% in assay [1] and 21.4% in assay [2] (NIH3T3/v-Src, 1 mM, Apo-BrdU, flow cytometry). Besides, the “incorporated BrdUTP compared to controls (in words)” value in assay [2] (Src-transformed fibroblasts) is recorded as “dramatic increases in incorporated BrdUTP”. Further, the soft-agar growth result in assay [3] is “no effect”. Further, the cell proliferation entry in assay [4] is “no effect on cell proliferation”; in assay [5], “no effect on cell proliferation”; in assay [6], “significantly suppresses proliferation”. Besides, in assay [7], the IC50 worked out at 310 µM. The “ligand (EGF)-induced STAT activation” value in assay [8] is “preferential inhibition of activation of Stat3”.
